From BindingDB's records for doi:10.1021/acs.jmedchem.7b00484 (University of Strathclyde, 2017)

Target: T1, Inhibitor of nuclear factor kappa-B kinase subunit beta (Homo sapiens, UniProt O14920)
T1 sequence (O14920 whole entry): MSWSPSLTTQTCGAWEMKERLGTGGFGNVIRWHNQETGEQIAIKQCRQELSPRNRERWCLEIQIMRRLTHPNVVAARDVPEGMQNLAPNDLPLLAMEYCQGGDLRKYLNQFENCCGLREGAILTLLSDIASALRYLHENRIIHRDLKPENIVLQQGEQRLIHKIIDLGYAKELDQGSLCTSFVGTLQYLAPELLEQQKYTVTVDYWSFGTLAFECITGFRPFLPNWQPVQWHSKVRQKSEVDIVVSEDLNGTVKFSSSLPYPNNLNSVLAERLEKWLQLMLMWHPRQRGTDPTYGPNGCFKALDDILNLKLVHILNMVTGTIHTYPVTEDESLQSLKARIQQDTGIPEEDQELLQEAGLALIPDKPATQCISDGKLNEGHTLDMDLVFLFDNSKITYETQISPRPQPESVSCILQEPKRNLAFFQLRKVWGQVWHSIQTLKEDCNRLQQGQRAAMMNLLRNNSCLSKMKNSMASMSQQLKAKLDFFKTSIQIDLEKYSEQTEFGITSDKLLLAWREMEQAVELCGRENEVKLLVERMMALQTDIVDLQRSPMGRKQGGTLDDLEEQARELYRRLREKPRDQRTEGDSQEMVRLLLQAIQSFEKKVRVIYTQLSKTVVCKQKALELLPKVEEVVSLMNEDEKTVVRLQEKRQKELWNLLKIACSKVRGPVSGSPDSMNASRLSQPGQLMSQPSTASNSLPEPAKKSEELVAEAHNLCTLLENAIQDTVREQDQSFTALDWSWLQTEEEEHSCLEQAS
Test: ChEBML_1690031
Procedure: Inhibition of recombinant full length human IKKbeta expressed in baculovirus infected sf9 insect cells using biotinylated IkBalpha as substrate after 60 mins by DELFIA

Ki: > 30 µM
SMILES: N#Cc1c[nH]c2nc(N)nc(N[C@@H]3CC[C@@H](O)[C@H]3O)c12
